{
  "source": "patent US20220073525A1",
  "about": "“COMPOSITIONS FOR INHIBITING UBIQUITIN SPECIFIC PROTEASE 1” (FORMA Therapeutics, Inc., priority 2019, published 2022)",
  "data": [
    {"biological_target": "USP1 (Homo sapiens, UniProt O94782)", "sequence (O94782 whole entry)": "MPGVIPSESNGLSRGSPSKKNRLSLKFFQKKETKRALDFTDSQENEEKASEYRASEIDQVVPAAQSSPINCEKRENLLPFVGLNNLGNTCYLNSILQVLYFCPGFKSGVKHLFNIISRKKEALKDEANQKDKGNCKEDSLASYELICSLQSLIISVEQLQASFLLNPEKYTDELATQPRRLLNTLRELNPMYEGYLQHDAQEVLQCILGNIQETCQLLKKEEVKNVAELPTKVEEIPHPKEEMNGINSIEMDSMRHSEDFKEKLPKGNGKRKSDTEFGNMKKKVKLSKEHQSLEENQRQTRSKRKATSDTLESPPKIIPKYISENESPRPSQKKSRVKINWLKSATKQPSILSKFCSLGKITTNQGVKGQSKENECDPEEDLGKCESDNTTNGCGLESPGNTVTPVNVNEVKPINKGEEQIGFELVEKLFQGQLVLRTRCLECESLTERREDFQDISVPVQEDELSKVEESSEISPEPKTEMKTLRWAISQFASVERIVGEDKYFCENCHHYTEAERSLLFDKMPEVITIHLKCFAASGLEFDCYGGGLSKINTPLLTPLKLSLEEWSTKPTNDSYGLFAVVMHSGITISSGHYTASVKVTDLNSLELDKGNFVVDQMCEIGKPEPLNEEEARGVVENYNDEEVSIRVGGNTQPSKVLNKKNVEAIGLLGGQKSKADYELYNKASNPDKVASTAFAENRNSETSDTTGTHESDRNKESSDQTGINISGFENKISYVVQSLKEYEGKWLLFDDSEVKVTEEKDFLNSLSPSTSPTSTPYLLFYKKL", "sequence (Q8TAF3 whole entry partner)": "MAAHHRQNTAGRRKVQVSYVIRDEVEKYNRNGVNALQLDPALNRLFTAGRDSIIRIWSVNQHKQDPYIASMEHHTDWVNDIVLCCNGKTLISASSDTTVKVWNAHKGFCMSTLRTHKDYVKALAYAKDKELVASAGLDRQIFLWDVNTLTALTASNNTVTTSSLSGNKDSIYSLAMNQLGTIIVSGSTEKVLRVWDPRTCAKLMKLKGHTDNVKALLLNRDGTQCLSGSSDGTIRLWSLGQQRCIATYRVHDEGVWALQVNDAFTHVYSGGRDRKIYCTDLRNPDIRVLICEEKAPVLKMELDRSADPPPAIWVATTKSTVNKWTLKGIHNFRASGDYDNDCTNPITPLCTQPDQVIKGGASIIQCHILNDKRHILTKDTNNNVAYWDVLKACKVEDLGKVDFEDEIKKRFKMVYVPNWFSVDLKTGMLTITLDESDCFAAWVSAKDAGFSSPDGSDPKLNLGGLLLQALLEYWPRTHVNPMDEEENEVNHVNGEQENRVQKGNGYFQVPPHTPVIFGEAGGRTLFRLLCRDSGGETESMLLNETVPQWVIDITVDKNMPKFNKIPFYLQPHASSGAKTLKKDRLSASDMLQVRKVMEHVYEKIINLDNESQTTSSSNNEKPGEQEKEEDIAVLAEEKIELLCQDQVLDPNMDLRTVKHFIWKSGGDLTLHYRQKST", "experiment": "Biochemical Assay for USP1 Inhibition (Ub-Rho 110 fluorescence)", "details": "Table 5; 30 min preincubation, Enzyme 0.025 nM, Substrate Ub-Rho 110 25 nM; read-out: IC50 (μm)", "description": "The assay was performed in a final volume of 6 μL in assay buffer containing 20 mM Tris-HCl pH 8.0, (1 M Tris-HCl, pH 8.0 solution; Corning 46-031-CM), 1 mM GSH (L-glutathione reduced, Sigma-Aldrich, G4251-100G), 0.03% BGG (0.22 μM filtered, Sigma, G7516-25G), and 0.01% Triton X-100 (Sigma, T9284-10L). Nanoliter quantities of 10-point, 3-fold serial dilution in DMSO were pre-dispensed into 1536 assay plates (Corning, #3724BC) for a final test concentration of 25 μM to 1.3 nM, top to lowest dose, respectively. Concentration and incubation times were optimized for the maximal signal-to-background while maintaining initial velocity conditions at a fixed substrate concentration (<<Km). 3 μL of 2× Enzyme was added to assay plates (pre-stamped with compound), preincubated for 30 min, and then treated with 3 μL of 2× Substrate (Ub-Rho 110, UbiQ-126). Final concentrations of Enzyme and Substrate are 0.025 nM and 25 nM, respectively. Plates were read using a kinetic protocol continuously for 11 min on the Envision (Perkin Elmer) or PheraSTAR (BMG), excitation at 485 nm and emission at 535 nm or excitation at 520 nm and emission at 590 nm. For all assay formats, data were reported as percent inhibition compared with control wells based on the following equation: % inh=100*([…]), where FLU=measured Fluorescence, AveLow=average Fluorescence of no enzyme control (n=32), and AveHigh=average Fluorescence of DMSO control (n=32). IC50 values were determined by curve fitting of the standard 4 parameter logistic fitting algorithm included in the Activity Base software package: TDBS XE Designer Model205. Data is fitted using the Levenburg Marquardt algorithm.\nIn Table 5, absolute stereochemistry has not been determined for some Compounds. Accordingly, assignment ofany Compounds as the “R” or “S” stereoisomer is arbitrary, unless otherwise noted. In some cases, Compounds are labeled with “1st eluting isomer”, “2nd eluting isomer”, etc. based on the purification method used to separate the stereoisomers.", "units": {"IC50": "µM"}, "values": [
      {"compound": "CC(C)c1ncccc1-c1nc(C2CC2)n2c1CN(c1ccc(-c3nc(C(F)(F)F)cn3C)cc1)CC2", "note": "[Compound 24, 3-(3-cyclopropyl-7-{4-[1-methyl-4-(trifluoromethyl)-1H-imidazol-2-yl]phenyl}-5H,6H,7H,8H-imidazo[1,5-a]pyrazin-1-yl)-2-(propan-2-yl)pyridine]", "IC50": "≤ 1"},
      {"compound": "Cc1nc(-c2cccnc2C(C)C)c2n1CCN(c1ccc(-c3nc(C(F)(F)F)cn3C3COC3)cc1)C2", "note": "[Compound 25, 3-(3-methyl-7-{4-[1-(oxetan-3-yl)-4-(trifluoromethyl)-1H-imidazol-2-yl]phenyl}-5H,6H,7H,8H-imidazo[1,5-a]pyrazin-1-yl)-2-(propan-2-yl)pyridine]", "IC50": "≤ 1"},
      {"compound": "CNC(=O)c1ccc(N2CCn3c(C)nc(-c4cccnc4C(C)C)c3C2)cc1", "note": "[Compound 26, N-methyl-4-{3-methyl-1-[2-(propan-2-yl)pyridin-3-yl]-5H,6H,7H,8H-imidazo[1,5-a]pyrazin-7-yl}benzamide]", "IC50": "> 25"},
      {"compound": "Cc1nc(-c2cccnc2C(C)C)c2n1CCN(c1ccc(-c3cncn3C)cc1)C2", "note": "[Compound 28, 3-{3-methyl-7-[4-(1-methyl-1H-imidazol-5-yl)phenyl]-5H,6H,7H,8H-imidazo[1,5-a]pyrazin-1-yl}-2-(propan-2-yl)pyridine]", "IC50": "> 25"},
      {"compound": "Cc1nc(-c2cccnc2C(C)C)c2n1CCN(c1ccc(C3CCCNC3=O)cc1)C2", "note": "(stereo not shown) [Compound 29, 3-(4-{3-methyl-1-[2-(propan-2-yl)pyridin-3-yl]-5H,6H,7H,8H-imidazo[1,5-a]pyrazin-7-yl}phenyl)piperidin-2-one]", "IC50": "> 25"},
      {"compound": "Cc1nc(-c2cccnc2C(C)C)c2n1CCN(c1ccc(N3CCOCC3)cc1)C2", "note": "[Compound 30, 4-(4-{3-methyl-1-[2-(propan-2-yl)pyridin-3-yl]-5H,6H,7H,8H-imidazo[1,5-a]pyrazin-7-yl}phenyl)morpholine]", "IC50": "> 25"},
      {"compound": "Cc1ccn(-c2ccc(N3CCn4c(C)nc(-c5cccnc5C(C)C)c4C3)cc2)n1", "note": "[Compound 31, 3-{3-methyl-7-[4-(3-methyl-1H-pyrazol-1-yl)phenyl]-5H,6H,7H,8H-imidazo[1,5-a]pyrazin-1-yl}-2-(propan-2-yl)pyridine]", "IC50": "≤ 1"},
      {"compound": "Cc1nc(-c2cccnc2C(C)C)c2n1CCN(c1ccc(C3=CCON3)cc1)C2", "note": "[Compound 32, 3-{7-[4-(2,5-dihydro-1,2-oxazol-3-yl)phenyl]-3-methyl-5H,6H,7H,8H-imidazo[1,5-a]pyrazin-1-yl}-2-(propan-2-yl)pyridine]", "IC50": "1 to 10"},
      {"compound": "Cc1nc(-c2cccnc2C(C)C)c2n1CCN(c1ccc(-n3ccnn3)cc1)C2", "note": "[Compound 33, 3-{3-methyl-7-[4-(1H-1,2,3-triazol-1-yl)phenyl]-5H,6H,7H,8H-imidazo[1,5-a]pyrazin-1-yl}-2-(propan-2-yl)pyridine]", "IC50": "10 to 25"},
      {"compound": "Cc1nc(-c2cccnc2C(C)C)c2n1CCN(c1ccc(C3CNC(=O)C3)cc1)C2", "note": "(stereo not shown) [Compound 34, 4-(4-{3-methyl-1-[2-(propan-2-yl)pyridin-3-yl]-5H,6H,7H,8H-imidazo[1,5-a]pyrazin-7-yl}phenyl)pyrrolidin-2-one]", "IC50": "> 25"},
      {"compound": "Cc1cc(N2CCn3c(C)nc(-c4cccnc4C(C)C)c3C2)ccc1N1CCCC1=O", "note": "[Compound 35, 1-(2-methyl-4-{3-methyl-1-[2-(propan-2-yl)pyridin-3-yl]-5H,6H,7H,8H-imidazo[1,5-a]pyrazin-7-yl}phenyl)pyrrolidin-2-one]", "IC50": "> 25"},
      {"compound": "Cc1nc(-c2cccnc2C(C)C)c2n1CCN(c1ccc(N3CCC(O)C3)cc1)C2", "note": "(stereo not shown) [Compound 36, 1-(4-{3-methyl-1-[2-(propan-2-yl)pyridin-3-yl]-5H,6H,7H,8H-imidazo[1,5-a]pyrazin-7-yl}phenyl)pyrrolidin-3-ol]", "IC50": "10 to 25"},
      {"compound": "Cc1nc(-c2cccnc2C(C)C)c2n1CCN(c1ccc(C3COC(=O)N3)cc1)C2", "note": "(stereo not shown) [Compound 37, 4-(4-{3-methyl-1-[2-(propan-2-yl)pyridin-3-yl]-5H,6H,7H,8H-imidazo[1,5-a]pyrazin-7-yl}phenyl)-1,3-oxazolidin-2-one]", "IC50": "> 25"},
      {"compound": "Cc1nc(-c2cccnc2C(C)C)c2n1CCN(c1ccc(N3CCCCC3=O)cc1)C2", "note": "[Compound 38, 1-(4-{3-methyl-1-[2-(propan-2-yl)pyridin-3-yl]-5H,6H,7H,8H-imidazo[1,5-a]pyrazin-7-yl}phenyl)piperidin-2-one]", "IC50": "> 25"},
      {"compound": "Cc1nnnn1-c1ccc(N2CCn3c(C)nc(-c4cccnc4C(C)C)c3C2)cc1", "note": "[Compound 39, 3-{3-methyl-7-[4-(5-methyl-1H-1,2,3,4-tetrazol-1-yl)phenyl]-5H,6H,7H,8H-imidazo[1,5-a]pyrazin-1-yl}-2-(propan-2-yl)pyridine]", "IC50": "> 25"},
      {"compound": "Cc1nc(-c2cccnc2C(C)C)c2n1CCN(c1ccc(-c3nnn(C)n3)cc1)C2", "note": "[Compound 40, 3-{3-methyl-7-[4-(2-methyl-2H-1,2,3,4-tetrazol-5-yl)phenyl]-5H,6H,7H,8H-imidazo[1,5-a]pyrazin-1-yl}-2-(propan-2-yl)pyridine]", "IC50": "1 to 10"},
      {"compound": "Cc1nc(-c2cccnc2C(C)C)c2n1CCN(c1ccc(-c3ncccn3)cc1)C2", "note": "[Compound 41, 2-(4-{3-methyl-1-[2-(propan-2-yl)pyridin-3-yl]-5H,6H,7H,8H-imidazo[1,5-a]pyrazin-7-yl}phenyl)pyrimidine]", "IC50": "1 to 10"},
      {"compound": "Cc1nc(-c2cccnc2C(C)C)c2n1CCN(c1ccc(-n3cnnc3)cc1)C2", "note": "[Compound 42, 3-{3-methyl-7-[4-(4H-1,2,4-triazol-4-yl)phenyl]-5H,6H,7H,8H-imidazo[1,5-a]pyrazin-1-yl}-2-(propan-2-yl)pyridine]", "IC50": "> 25"},
      {"compound": "Cc1nc(-c2cccnc2C(C)C)c2n1CCN(c1ccc(N3CCCC3=O)cc1)C2", "note": "[Compound 43, 1-(4-{3-methyl-1-[2-(propan-2-yl)pyridin-3-yl]-5H,6H,7H,8H-imidazo[1,5-a]pyrazin-7-yl}phenyl)pyrrolidin-2-one]", "IC50": "1 to 10"},
      {"compound": "Cc1nnc(-c2ccc(N3CCn4c(C)nc(-c5cccnc5C(C)C)c4C3)cc2)o1", "note": "[Compound 44, 3-{3-methyl-7-[4-(5-methyl-1,3,4-oxadiazol-2-yl)phenyl]-5H,6H,7H,8H-imidazo[1,5-a]pyrazin-1-yl}-2-(propan-2-yl)pyridine]", "IC50": "1 to 10"},
      {"compound": "Cc1nc(-c2ccc(N3CCn4c(C)nc(-c5cccnc5C(C)C)c4C3)cc2)cn1C", "note": "[Compound 45, 3-{7-[4-(1,2-dimethyl-1H-imidazol-4-yl)phenyl]-3-methyl-5H,6H,7H,8H-imidazo[1,5-a]pyrazin-1-yl}-2-(propan-2-yl)pyridine]", "IC50": "≤ 1"},
      {"compound": "Cc1nc(-c2cccnc2C(C)C)c2n1CCN(c1ccc(C3(O)COC3)cc1)C2", "note": "[Compound 46, 3-(4-{3-methyl-1-[2-(propan-2-yl)pyridin-3-yl]-5H,6H,7H,8H-imidazo[1,5-a]pyrazin-7-yl}phenyl)oxetan-3-ol]", "IC50": "> 25"},
      {"compound": "Cc1nc(-c2cccnc2C(C)C)c2n1CCN(c1ccc(-n3ccnc3)cc1)C2", "note": "[Compound 47, 3-{7-[4-(1H-imidazol-1-yl)phenyl]-3-methyl-5H,6H,7H,8H-imidazo[1,5-a]pyrazin-1-yl}-2-(propan-2-yl)pyridine]", "IC50": "> 25"},
      {"compound": "CNC(=O)c1ccc(N2CCn3c(C)nc(-c4cccnc4C(C)C)c3C2)c(F)c1", "note": "[Compound 48, 3-fluoro-N-methyl-4-{3-methyl-1-[2-(propan-2-yl)pyridin-3-yl]-5H,6H,7H,8H-imidazo[1,5-a]pyrazin-7-yl}benzamide]", "IC50": "> 25"},
      {"compound": "Cc1nc(-c2cccnc2C(C)C)c2n1CCN(c1ccc(C(=O)N(C)C)cc1F)C2", "note": "[Compound 49, 3-fluoro-N,N-dimethyl-4-{3-methyl-1-[2-(propan-2-yl)pyridin-3-yl]-5H,6H,7H,8H-imidazo[1,5-a]pyrazin-7-yl}benzamide]", "IC50": "10 to 25"},
      {"compound": "Cc1nc(-c2cccnc2C(C)C)c2n1CCN(c1ccc(C(=O)N(C)C)cc1)C2", "note": "[Compound 50, N,N-dimethyl-4-{3-methyl-1-[2-(propan-2-yl)pyridin-3-yl]-5H,6H,7H,8H-imidazo[1,5-a]pyrazin-7-yl}benzamide]", "IC50": "10 to 25"},
      {"compound": "Cc1nc(-c2cccnc2C(C)C)c2n1CCN(c1ccc(C(=O)NCc3ccc(-n4ccc(C(F)(F)F)n4)cc3)cc1)C2", "note": "[Compound 53, 4-{3-methyl-1-[2-(propan-2-yl)pyridin-3-yl]-5H,6H,7H,8H-imidazo[1,5-a]pyrazin-7-yl}-N-({4-[3-(trifluoromethyl)-1H-pyrazol-1-yl]phenyl}methyl)benzamide]", "IC50": "1 to 10"},
      {"compound": "Cc1nc(-c2cccnc2C(C)C)c2n1CCN(c1ccc(C(=O)N3CCC[C@H]3C)cc1)C2", "note": "[Compound 54-1, 3-(3-methyl-7-{4-[(2R)-2-methylpyrrolidine-1-carbonyl]phenyl}-5H,6H,7H,8H-imidazo[1,5-a]pyrazin-1-yl)-2-(propan-2-yl)pyridine]", "IC50": "10 to 25"}
    ]}
  ]
}
